Counter-ions that a name gives are not always drawn.

Data set [1] addresses T1, CDK2/cyclin A (Homo sapiens, UniProt P24941).
T1 construct: made in house; host or cells: CDK2: insect cells (baculovirus); cyclin A: E. coli
The experiment in a line: Inhibition of CDK2/cyclin A retinoblastoma kinase activity (Ki; % inhibition). The format is biochemical. The settings on record: apparent Ki, CDK2/cyclin A, Rb substrate. In a few lines: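 Radiometric filter assay of CDK2/proteolyzed cyclin A (baculovirus-expressed human CDK2, 10 or 19 nM) phosphorylating an Rb fragment with 25 μM [³²P/³³P]ATP in pH 7.4 HEPES, 2% DMSO, at 30 °C for 60 or 75 min under initial-rate conditions. Library compounds screened at 30 nM for % inhibition; apparent Ki from concentration series fit to competitive or tight-binding inhibition equations.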

Data set [2] addresses T2, human CDK4/cyclin D3 (Homo sapiens, UniProt P11802).
T2 construct: made in house; host or cells: insect cells co-infected with baculovirus vectors
The experiment in a line: Inhibition of CDK4/cyclin D retinoblastoma kinase activity (Ki; % inhibition). The format is biochemical. The settings on record: apparent Ki, CDK4/cyclin D3, Rb substrate. In a few lines:
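Insect-cell-expressed CDK4 with truncated cyclin D3 (1-264), 5 nM, phosphorylating His-tagged Rb fragment (386-928) with 25 μM [32/33P]ATP at pH 7.4, 30 °C, 20 min (60 min for tight binders). Filter capture, phosphorimager read; % inhibition at 30 nM compound, Ki from competitive or tight-binding fits.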

For data set [3], the system named is HCT-116 cell line. The experiment in a line: Inhibition of cell growth, MTT tetrazolium salt assay. The format is cell-based. The settings on record: Homo sapiens, HCT-116, 120 h; MTT, three to five days. In a few lines:
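Growth inhibition was read as MTT-formazan absorbance at 540 nm, after 4 h with 0.2 mg/mL MTT. Before that, HCT-116 cells had been exposed 3–5 days at 37 °C to compounds in 0.5% (v/v) DMSO, added 4 h after plating. 50% and 90% inhibitory concentrations were taken from semi-log concentration–inhibition plots versus vehicle controls.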
Background: Tetrazolium assays rely on reduction of a dye to a coloured formazan, in cell work by metabolically active cells.

Data set [4] has as its target T3, Phosphorylated FGF receptor kinase (FGFR1 cytosolic domain) (Homo sapiens, UniProt P11362, C488A/C584S/L457V).
T3 construct: FGFR1 tyrosine kinase (amino acids 456-766); made in house; host or cells: Sf9 insect cells (baculovirus)
The experiment in a line: Inhibition of phosphorylated FGF receptor tyrosine kinase activity (coupled spectrophotometric assay). The format is biochemical. The settings on record: read-out: P-FGF % Inhibition at 1 μM. Here is the method: (§1) Cloning, expression and purification of the cytosolic domain of FGFR1 tyrosine kinase (amino acids 456-766) containing three amino acid substitutions (L457V, C488A, and C584S) were conducted as previously described (Mohammadi, M., Schiessinger, J., & Hubbard, S. R. Cell, 86, (1996) 577-587). This domain was expressed in Sf9 insect cells using a baculovirus expression vector, and protein was purified using conventional techniques. The LCK tyrosine kinase was expressed in insect cells as an N-terminal deletion starting from amino acid 223 to the end of the protein at amino acid 509. The N-terminus of the protein also had two amino acid substitutions, P223M and C224D. Kinases were purified using conventional chromatographic methods.
(§2) Tyrosine kinase activity was measured using a coupled, continuous spectrophotometric assay, in which production of phosphorylated poly(Glu,Tyr; 4:1) substrate and ADP is coupled to the pyruvate kinase-catalyzed transfer of a phosphate from phosphoenolpyruvate to ADP, with generation of pyruvate and regeneration of ATP. Pyruvate production is in turn coupled to the lactate dehydrogenase-catalyzed reduction of pyruvate to form lactate, with concomitant conversion of NADH to NAD^+. Loss of NADH is monitored by measuring absorbance at 340 nm (see e.g., Technikova-Dobrova et al., “Spectrophotometric Determination of Functional Characteristics of Protein Kinases with Coupled Enzymatic Assay,” FEBS Letters, 292 (1991), pp. 69-72). Enzyme activity was measured in the presence of 200 mM HEPES (pH 7.5), 2 mM phosphoenolpyruvate, 0.3 mM NADH, 20 mM MgCl2, 100 μM ATP, 5 mM DTT, 5.1 or 25 mM poly (Glu,Tyr) 4:1 for P-FGF or P-LCK assays, respectively, and 15 units/mL each of pyruvate kinase and lactate dehydrogenase. Phosphorylated FGF receptor kinase was present at 100 nM and phosphorylated LCK kinase was present at 50 nM. Assays were performed under initial rate conditions at 37° C., and rates were corrected for any background rate measured in the absence of enzyme. Percent inhibition was calculated relative to control enzyme assayed in the presence of 2% (v/v) DMSO.

Data set [5] addresses T4, phosphorylated LCK kinase (Homo sapiens, UniProt P06239, C224D/P223M).
T4 construct: starting from amino acid 223 to the end of the protein at amino acid 509; made in house; host or cells: insect cells
The experiment in a line: Inhibition of phosphorylated LCK tyrosine kinase activity (coupled spectrophotometric assay). The format is biochemical. The following applies: read-out: P-LCK % Inhibition at 1 μM. Here is the method: as §1, §2

For data set [6], the target named is T5, human CDK1 (cdc2)/cyclin B (Homo sapiens, UniProt P06493).
T5 construct: purchased New England Biolabs (Beverly, Mass.)
T5 sequence (P06493 whole entry): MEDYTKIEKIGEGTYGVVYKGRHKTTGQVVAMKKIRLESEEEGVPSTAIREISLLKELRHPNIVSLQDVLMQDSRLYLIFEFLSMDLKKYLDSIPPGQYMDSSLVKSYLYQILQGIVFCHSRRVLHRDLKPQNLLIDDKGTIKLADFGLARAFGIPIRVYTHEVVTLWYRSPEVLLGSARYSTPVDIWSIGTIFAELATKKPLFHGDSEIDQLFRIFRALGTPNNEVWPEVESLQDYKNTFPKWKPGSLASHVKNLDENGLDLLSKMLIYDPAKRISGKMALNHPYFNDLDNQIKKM
T5 sequence (P14635 whole entry partner): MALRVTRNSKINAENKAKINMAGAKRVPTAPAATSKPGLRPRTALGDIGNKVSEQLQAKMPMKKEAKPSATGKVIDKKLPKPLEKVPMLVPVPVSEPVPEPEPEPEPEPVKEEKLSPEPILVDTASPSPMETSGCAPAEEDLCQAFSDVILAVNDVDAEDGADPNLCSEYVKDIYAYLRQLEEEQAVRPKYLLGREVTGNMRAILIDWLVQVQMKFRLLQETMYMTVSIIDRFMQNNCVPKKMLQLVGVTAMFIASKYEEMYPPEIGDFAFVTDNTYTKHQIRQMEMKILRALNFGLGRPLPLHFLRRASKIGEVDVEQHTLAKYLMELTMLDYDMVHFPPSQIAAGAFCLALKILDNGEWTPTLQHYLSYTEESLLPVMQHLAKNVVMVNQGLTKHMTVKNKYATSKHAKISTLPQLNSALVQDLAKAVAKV
The experiment in a line: Inhibition of CDK1 (cdc2)/cyclin B histone H1 kinase activity. The format is biochemical. The settings on record: histone H1 substrate. As for the experimental part:
Cyclin-dependent kinase activity was measured by quantifying the enzyme-catalyzed, time-dependent incorporation of radioactive phosphate from [^32P]ATP or [^33P]ATP into a protein substrate. Unless noted otherwise, assays were performed in 96-well plates in a total volume of 50 μL, in the presence of 10 mM HEPES (N-[2-hydroxyethyl]piperazine-N′-[2-ethanesulfonic acid]) (pH 7.4), 10 mM MgCl2, 25 μM adenosine triphosphate (ATP), 1 mg/mL ovalbumin, 5 μg/mL leupeptin, 1 mM dithiothreitol, 10 mM β-glycerophosphate, 0.1 mM sodium vanadate, 1 mM sodium fluoride, 2.5 mM ethylene glycol-bis(β-aminoethyl ether)-N,N,N′N′-tetraacetic acid (EGTA), 2% (v/v) dimethylsulfoxide, and 0.03-0.4 μCi [^32/33P]ATP per reaction. Reactions were initiated with enzyme, incubated at 30° C., and terminated after 20 minutes by the addition of ethylenediaminetetraacetic acid (EDTA) to 250 mM. The phosphorylated substrate was then captured on a nitrocellulose or phosphocellulose membrane using a 96-well filtration manifold, and unincorporated radioactivity was removed by repeated washing with 0.85% phosphoric acid. Radioactivity was quantified by exposing the dried membranes to a phosphorimager.
Compounds from combinatorial libraries were screened from 96-well plates for % inhibition of CDK activity at 30 nM theoretical compound concentration. Inhibition was measured relative to control wells that contained all reaction components including 2% (v/v) DMSO but no compound, after subtraction of background radioactivity measured in the absence of enzyme. Apparent Ki values of discrete compounds were measured by assaying enzyme activity in the presence of different inhibitor compound concentrations and subtracting the background radioactivity measured in the absence of enzyme. The kinetic parameters (kcat, Km for ATP) were measured for each enzyme under the usual assay conditions by determining the dependence of initial rates on ATP concentration. Inhibition data were fit to an equation for competitive inhibition using Kaleidagraph (Synergy Software), or were fit to an equation for competitive tight-binding inhibition using the software KineTic (BioKin, Ltd.).
The complex of human CDK1 (cdc2) and cyclin B was purchased from New England Biolabs (Beverly, Mass.). Alternatively, a CDK1/glutathione-S-transferase-cyclin B1 complex was purified using glutathione affinity chromatography from insect cells that had been co-infected with the corresponding baculovirus expression vectors. The assay was executed as described above at 30° C. using 2.5 units of cdc2/cyclin B, 10 μg Histone H1 protein, and 0.1-0.3 μCi [^32/33P]ATP per assay. Phosphorylated histone substrate was captured by microfiltration on a phosphocellulose P81 membrane and quantified using a phosphorimager as described above. Ki values were measured using the described curve-fitting programs.

T2 sequence (P11802 whole entry): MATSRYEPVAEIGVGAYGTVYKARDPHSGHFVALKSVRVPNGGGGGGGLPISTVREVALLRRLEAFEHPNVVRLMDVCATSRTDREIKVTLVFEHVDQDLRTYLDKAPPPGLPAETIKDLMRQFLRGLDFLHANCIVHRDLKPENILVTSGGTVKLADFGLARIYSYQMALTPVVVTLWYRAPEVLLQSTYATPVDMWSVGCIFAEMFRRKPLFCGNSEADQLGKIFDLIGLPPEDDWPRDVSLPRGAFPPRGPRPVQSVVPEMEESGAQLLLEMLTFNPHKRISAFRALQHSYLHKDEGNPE
T2 sequence (P30281 1-264 partner limits assumed): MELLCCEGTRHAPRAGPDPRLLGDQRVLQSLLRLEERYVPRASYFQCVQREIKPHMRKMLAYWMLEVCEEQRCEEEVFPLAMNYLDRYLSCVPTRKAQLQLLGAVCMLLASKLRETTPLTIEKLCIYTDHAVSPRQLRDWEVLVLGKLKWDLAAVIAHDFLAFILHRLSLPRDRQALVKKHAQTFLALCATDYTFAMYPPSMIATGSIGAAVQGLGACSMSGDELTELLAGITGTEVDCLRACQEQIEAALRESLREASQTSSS
T3 sequence (P11362 456-766 L457V/C488A/C584S): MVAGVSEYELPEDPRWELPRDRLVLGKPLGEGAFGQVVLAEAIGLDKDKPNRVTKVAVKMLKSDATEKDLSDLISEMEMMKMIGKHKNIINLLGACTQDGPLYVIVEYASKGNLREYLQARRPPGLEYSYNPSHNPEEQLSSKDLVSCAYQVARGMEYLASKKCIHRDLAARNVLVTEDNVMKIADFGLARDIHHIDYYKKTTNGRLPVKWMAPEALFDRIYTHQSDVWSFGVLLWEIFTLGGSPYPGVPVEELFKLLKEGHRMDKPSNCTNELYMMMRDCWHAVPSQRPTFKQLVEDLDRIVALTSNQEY
T4 sequence (P06239 223-509 P223M/C224D): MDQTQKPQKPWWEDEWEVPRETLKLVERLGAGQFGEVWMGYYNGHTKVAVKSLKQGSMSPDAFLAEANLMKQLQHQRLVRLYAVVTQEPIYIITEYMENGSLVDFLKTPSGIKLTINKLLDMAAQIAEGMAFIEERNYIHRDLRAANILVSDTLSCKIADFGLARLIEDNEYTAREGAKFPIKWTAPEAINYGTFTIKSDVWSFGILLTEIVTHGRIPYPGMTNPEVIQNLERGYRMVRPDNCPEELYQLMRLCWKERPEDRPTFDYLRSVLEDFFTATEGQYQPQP

As for `CN(C)CC(C)(C)NC(=O)c1ccc(Nc2nc(N)c(C(=O)c3c(F)cccc3F)s2)cc1` (as salt: hydrochloride) [Example A61, 4-[4-Amino-5-(2,6-difluoro-benzoyl)-thiazol-2-ylamino]-N-(2-dimethylamino-1,1-dimethyl-ethyl)-benzamide Dihydrochloride], the melting point was 275 to 290 °C (dec.).

On to `Nc1nc(Nc2ccc(C(=O)Nc3ccc4c(c3)OCCO4)cc2)sc1C(=O)c1c(F)cccc1F` [Example A17, 4-[4-Amino-5-(2,6-difluoro-benzoyl)-thiazol-2-ylamino]-N-(2,3-dihydro-benzo[1,4]dioxin-6-yl)-benzamide], for which the Ki in data set [1] is 51 nM; in data set [2], 26 nM. In addition, in data set [3], the IC50 was 100 nM. The inhibition at 1 µM in data set [4] and in data set [5] was 0% each time.

As to `CC(=O)N(C)c1ccc(NC(=O)c2ccc(Nc3nc(N)c(C(=O)c4c(F)cccc4F)s3)cc2)cc1` [Example A25], the results for the Ki in data set [1] and in data set [2] were 62 nM and 13 nM, respectively. Moreover, in data set [3], the IC50 was 94 nM. The inhibition at 1 µM in data set [4] and in data set [5] was 0% each time.

Consider `C[C@H](CNC(=O)c1ccc(Nc2nc(N)c(C(=O)c3c(F)cccc3F)s2)cc1)N(C)C` [Example A44, 4-[4-Amino-5-(2,6-difluoro-benzoyl)-thiazol-2-ylamino]-N-(2R-dimethylamino-propyl)-benzamide], for which the Ki in data set [1] worked out at 120 nM; in data set [2] it was 10 nM; in data set [6], 72 nM. Further, the IC50 in data set [3] was 130 nM.

As a reminder, the melting point is the temperature of the solid-liquid transition. The IC50 is the concentration at which inhibition is half-maximal. The inhibition is the percentage by which the read-out fell short of the control.

Source of the values: patent publication US6720346B2, “Thiazole benzamide derivatives and pharmaceutical compositions for inhibiting cell proliferation” (Agouron Pharmaceuticals, Inc., priority 2001, dated 2004).
